Assay results as given in patent US6977254B2, “Hydroxy cyclohexenyl phenyl carboxamides tocolytic oxytocin receptor antagonists” (Wyeth, priority 2001, dated 2005).

Molecular target: T1, human vasopressin V1a receptor subtype (Homo sapiens, UniProt P37288)
T1 construct: host or cells: CHO cells, stably transfected (pZeoSV vector for the Thibonnier line); membranes
Assay: Vasopressin binding in CHO cell membranes expressing human vasopressin V1a subtype receptors ([3H]Manning ligand)
Conditions: 100 nM, value without parentheses
Description: Vasopressin Binding in Chinese Hamster Ovary Cell Membranes Expressing Human Vasopressin V1a Subtype Receptors
Chinese hamster ovary cells (CHO cells) stably transfected with the human vasopressin V1a subtype receptors were either obtained from Biosignal Inc., 1744 rue Williams, Montreal, Quebec, Canada or obtained from M. Thibonnier, Case Western Reserve University School of Medicine, Cleveland, Ohio.
A. Passaging and Amplification of Cells:
CHO cells transfected with the human vasopressin V1a subtype receptors obtained from M. Thibonnier (pZeoSV vector) are allowed to grow to confluency (approx. >90%) in T-150 flasks under sterile conditions, in a cell culture medium of F-12 Nutrient Mixture (HAM) with L-glutamine (Gibco Cat. #11765-054) containing 15 mM HEPES (Gibco Cat. #15630-080), 1% antibiotic/antimycotic (add 5 mL 100×, Gibco Cat. #15240-062 per 500 mL F-12), 250 μg/mL Zeocin (add 1.25 mL of 100 mg/mL Invitrogen R-250-01 per 500 mL F-12) and 10% Fetal Bovine Serum (Qualified, heat inactivated, Gibco Cat. #16140-063). The medium is removed by aspiration and the cells are washed with 10 mL of Hank's Balanced Salt solution (Gibco Cat. #14175-095). The salt solution is removed by aspiration and the cells are trypsinized with 5 mL of trypsin-EDTA (0.05% trypsin, 0.53 mM EDTA-4Na, Gibco Cat. #25300-070) for 1 min. The trypsin is removed by aspiration and the cells dislodged by tapping. Cell Culture medium (eg, 30 mL for 1:30 split) is immediately added and mixed well to inactivate trypsin. 1 mL of detached cells is added to new culture flasks containing fresh cell culture medium (eg, into 25 mL per T-150 flask), and mixed gently. The cells are incubated at 37° C. in 5% CO2. The medium is changed at 3 to 4 days interval (or as appropriate). The cells grow to confluency (approx. >75%-95%) within 7-8 days. All steps are done under sterile conditions.
The cells are washed twice gently with Hank's Balanced Salt solution (e.g,. use 10 mL per T-150 flask). The excess is removed and the cells are bathed for 15-30 min. in an enzyme-free Cell Dissociation Buffer (e.g. use 8 mL Hank's Based, Gibco Cat. #13150-016 per T-150 flask) until the cells are loosened. The contents are transferred to centrifuge tubes (50 mL size) kept in ice bath. All subsequent steps are done at 4° C. The tubes are centrifuged at 300×g for 15 min (1380 rpm on SORVAL, Model RT6000D, using rotor for 50 mL tubes). The supernatant is discarded and the cells suspended in homogeneizing buffer(10 mM Tris-HCl containing 0.25 M sucrose and 1 mM EDTA, pH 7.4) ensuring that the volume of the buffer is about ten times the volume of the cell pellet. The cells are pooled into a centrifuge tube (50 mL) and homogenized with Polytron at setting 6 for 10 sec. The homogenate is transferred into a Potter-Elvjehm homogenizer and homogenized with 3 strokes. The homogenate is centrifuged at 1500×g for 10 min at 4° C. (3100 rpm using SORVAL, model RT6000D, using rotor for 50 mL tubes). The pellet is discarded. The supernatant is centrifuged at 100,000×g for 60 min. at 4° C. (Beckman L8-80M ultracentrifuge; spin at 37,500 rpm with rotor type 70 Ti for 50 mL tubes; 38,000 rpm with type 80Ti for 15 mL tubes; or 35,800 rpm with rotor type 45Ti). The supemantant is discarded and the pellet suspended in 3 to 4 mL of Tris buffer (50 mM TRIS-HCl, pH 7.4). The protein content is estimated by the Bradford or Lowry method. The volume of the membrane suspension is adjusted with the membrane buffer (50 mM Tris-HCl containing 0.1% BSA and 0.1 mM PMSF) to give 3.0 mg/mL (or as appropriate) of protein. The membranes are aliquoted and stored at −70° C.
C. Radioligand Binding Assay: […]

T1 sequence (P37288 whole entry): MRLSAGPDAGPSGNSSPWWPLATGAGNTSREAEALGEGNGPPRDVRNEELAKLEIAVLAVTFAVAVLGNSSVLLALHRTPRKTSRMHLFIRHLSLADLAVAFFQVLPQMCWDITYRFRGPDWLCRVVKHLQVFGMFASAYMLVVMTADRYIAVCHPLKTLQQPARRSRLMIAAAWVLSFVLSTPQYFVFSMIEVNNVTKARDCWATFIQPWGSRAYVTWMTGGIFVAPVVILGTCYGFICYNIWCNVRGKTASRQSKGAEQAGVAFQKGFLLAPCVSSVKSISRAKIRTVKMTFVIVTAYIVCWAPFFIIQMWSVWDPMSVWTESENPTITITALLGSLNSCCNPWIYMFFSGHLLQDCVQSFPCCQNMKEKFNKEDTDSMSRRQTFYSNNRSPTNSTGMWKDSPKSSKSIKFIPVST

V1a % inhibition @ 100 nM: 31%
SMILES: Cc1cc(C(=O)N2Cc3ccc(C(=O)N4CCN(CCO)CC4)n3Cc3ccccc32)ccc1C1=CCCCC1 [Example 17, {10-[4-(1-Cyclohex-1-en-1-yl)-3-methylbenzoyl]-10,11-dihydro-5H-pyrrolo[2,1-c][1,4]benzodiazepin-3-yl}[4-(2-hydroxyethyl)-1-piperazinyl]methanone]
